Data from article PMC6556873, “Rapid Covalent-Probe Discovery by Electrophile-Fragment Screening” (Journal of the American Chemical Society, 2019).
Where two headings read alike, the source gives them in different places. Each block holds one molecule with its values, some of them ahead of it.

How the values were obtained:
BSA = target: T1, BSA (Bos taurus, UniProt P02769); design: Intact protein LC/MS covalent labelling, fragments in pools of five, 200 uM each, 4 °C; conditions: 24 h, 4 °C, pool of five; 200 µM; covalent
T1 construct: gene ALB
T1 sequence (P02769 whole entry, the tested form may be a part): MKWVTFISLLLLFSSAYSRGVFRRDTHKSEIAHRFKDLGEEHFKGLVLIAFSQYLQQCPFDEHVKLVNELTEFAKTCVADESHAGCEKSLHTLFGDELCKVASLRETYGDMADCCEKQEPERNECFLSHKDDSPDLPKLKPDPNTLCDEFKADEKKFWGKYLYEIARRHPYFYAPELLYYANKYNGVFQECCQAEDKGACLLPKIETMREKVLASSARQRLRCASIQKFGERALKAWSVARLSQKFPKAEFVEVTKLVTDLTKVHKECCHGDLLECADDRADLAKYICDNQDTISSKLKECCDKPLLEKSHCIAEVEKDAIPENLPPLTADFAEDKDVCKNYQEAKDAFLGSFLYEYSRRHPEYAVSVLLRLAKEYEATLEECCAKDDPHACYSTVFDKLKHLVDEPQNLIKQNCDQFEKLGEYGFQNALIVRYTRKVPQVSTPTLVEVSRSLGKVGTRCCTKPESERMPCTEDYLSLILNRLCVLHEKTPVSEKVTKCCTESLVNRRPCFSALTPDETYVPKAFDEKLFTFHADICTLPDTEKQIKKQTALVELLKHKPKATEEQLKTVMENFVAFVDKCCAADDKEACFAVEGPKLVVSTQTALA

NUDT7 = target: T2, NUDT7 (Homo sapiens, UniProt P0C024); design: Intact protein LC/MS covalent labelling, fragments in pools of five, 200 uM each, 4 °C; conditions: 24 h, 4 °C, pool of five; 200 µM; covalent
T2 construct: residues 14-235, E. coli, pNIC28-Bsa4, N-terminal His6 tag removed by TEV, construct 26672 Da
T2 sequence (P0C024 14-235): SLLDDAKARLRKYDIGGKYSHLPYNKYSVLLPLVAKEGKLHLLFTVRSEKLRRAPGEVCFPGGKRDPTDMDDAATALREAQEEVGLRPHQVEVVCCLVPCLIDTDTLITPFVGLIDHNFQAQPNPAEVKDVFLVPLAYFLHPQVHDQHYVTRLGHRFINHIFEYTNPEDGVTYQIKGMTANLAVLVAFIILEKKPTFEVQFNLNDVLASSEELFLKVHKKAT

OTUB2 (OTUB2A) = target: T3, OTUB2 (OTUB2A) (Homo sapiens, UniProt Q96DC9); design: Intact protein LC/MS covalent labelling, fragments in pools of five, 200 uM each, 4 °C; conditions: 24 h, 4 °C, pool of five; 200 µM; covalent
T3 construct: full length residues 1-234, E. coli BL21(DE3)-R3, His tag removed by TEV, construct 27312 Da
T3 sequence (Q96DC9 1-234): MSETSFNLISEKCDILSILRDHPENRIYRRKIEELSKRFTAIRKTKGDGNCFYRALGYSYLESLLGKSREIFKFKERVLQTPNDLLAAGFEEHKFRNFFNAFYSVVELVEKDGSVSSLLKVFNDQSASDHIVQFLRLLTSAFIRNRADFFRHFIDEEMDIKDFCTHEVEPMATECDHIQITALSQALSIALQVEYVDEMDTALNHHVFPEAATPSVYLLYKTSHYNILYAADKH

PCAF = target: T4, PCAF (Homo sapiens, UniProt Q92831); design: Intact protein LC/MS covalent labelling, fragments in pools of five, 200 uM each, 4 °C; conditions: 24 h, 4 °C, pool of five; 200 µM; covalent
T4 construct: gene KAT2B
T4 sequence (Q92831 whole entry, the tested form may be a part): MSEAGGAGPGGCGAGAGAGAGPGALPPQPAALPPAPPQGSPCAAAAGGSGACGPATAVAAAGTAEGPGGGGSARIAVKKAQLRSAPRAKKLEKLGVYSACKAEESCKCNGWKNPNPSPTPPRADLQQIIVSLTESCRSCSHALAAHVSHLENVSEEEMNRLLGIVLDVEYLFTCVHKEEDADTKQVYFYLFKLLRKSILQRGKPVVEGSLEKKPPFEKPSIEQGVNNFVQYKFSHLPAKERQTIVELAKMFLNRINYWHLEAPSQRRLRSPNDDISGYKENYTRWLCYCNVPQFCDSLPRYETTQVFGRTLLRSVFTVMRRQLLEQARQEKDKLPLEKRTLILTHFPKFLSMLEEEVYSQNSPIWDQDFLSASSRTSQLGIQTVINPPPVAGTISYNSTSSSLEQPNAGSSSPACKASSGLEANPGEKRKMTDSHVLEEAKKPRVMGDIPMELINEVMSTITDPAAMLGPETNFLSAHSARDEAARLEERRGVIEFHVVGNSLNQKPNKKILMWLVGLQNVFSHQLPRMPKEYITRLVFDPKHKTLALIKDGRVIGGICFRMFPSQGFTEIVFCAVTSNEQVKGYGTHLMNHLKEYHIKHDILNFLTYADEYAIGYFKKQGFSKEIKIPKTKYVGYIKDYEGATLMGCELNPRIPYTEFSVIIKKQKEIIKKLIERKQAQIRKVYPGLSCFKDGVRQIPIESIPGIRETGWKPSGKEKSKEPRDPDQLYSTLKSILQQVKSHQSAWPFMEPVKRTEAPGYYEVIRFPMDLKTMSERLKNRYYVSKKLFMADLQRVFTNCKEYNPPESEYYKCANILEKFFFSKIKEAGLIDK

in vitro [1] = assay: in vitro; design: species or system CCD841, HEK293; conditions: human, hb2 cells, read-out: HB-2 Cells Viability (%)
in vitro [2] = assay: in vitro; design: species or system HB2, HEK293; conditions: human, ccd841 cells
in vitro [3] = assay: in vitro; design: species or system HB2, CCD841; conditions: human, hek293 cells

Structure (SMILES): Cc1ccc(CNC(=O)CCl)s1 [PCM-0102973]
BSA (BSA): 0.19
NUDT7 (NUDT7): 0.11
OTUB2 (OTUB2 (OTUB2A)): 0.75
PCAF (PCAF): 0
viability at 48 h, 10 µM (in vitro [1]): 98%
viability at 48 h, 10 µM (in vitro [2]): 90.8%
viability at 48 h, 10 µM (in vitro [3]): 106%

Structure (SMILES): CC(C)N(C)C(=O)C1CCN(C(=O)CCl)CC1 [PCM-0102974]
BSA (BSA): 0
NUDT7 (NUDT7): 0
OTUB2 (OTUB2 (OTUB2A)): 0
PCAF (PCAF): 0
viability at 48 h, 10 µM (in vitro [1]): 86.7%
viability at 48 h, 10 µM (in vitro [2]): 84%
viability at 48 h, 10 µM (in vitro [3]): 79.8%

Structure (SMILES): CN(C(=O)CCl)c1nccs1 [PCM-0102975]
BSA (BSA): 0
NUDT7 (NUDT7): 0
OTUB2 (OTUB2 (OTUB2A)): 0
PCAF (PCAF): 0
viability at 48 h, 10 µM (in vitro [1]): 99.8%
viability at 48 h, 10 µM (in vitro [2]): 118%
viability at 48 h, 10 µM (in vitro [3]): 97%

Structure (SMILES): CC(C)(C)OC(=O)CNC(=O)CCl [PCM-0102981]
BSA (BSA): 0.18
NUDT7 (NUDT7): 0
OTUB2 (OTUB2 (OTUB2A)): 0
PCAF (PCAF): 0
viability at 48 h, 10 µM (in vitro [1]): 106%
viability at 48 h, 10 µM (in vitro [2]): 109%
viability at 48 h, 10 µM (in vitro [3]): 106%

Structure (SMILES): O=C(CCl)NNC(=O)c1ccco1 [PCM-0102985]
BSA (BSA): 0.2
NUDT7 (NUDT7): 0
OTUB2 (OTUB2 (OTUB2A)): 0.27
PCAF (PCAF): 0
viability at 48 h, 10 µM (in vitro [1]): 96.9%
viability at 48 h, 10 µM (in vitro [2]): 89.7%
viability at 48 h, 10 µM (in vitro [3]): 100%

Structure (SMILES): CN(Cc1cccc(C(F)(F)F)c1)C(=O)CCl [PCM-0102987]
BSA (BSA): 0
NUDT7 (NUDT7): 0.09
OTUB2 (OTUB2 (OTUB2A)): 0
PCAF (PCAF): 0
viability at 48 h, 10 µM (in vitro [1]): 5.3%
viability at 48 h, 10 µM (in vitro [2]): 45.2%
viability at 48 h, 10 µM (in vitro [3]): 6.7%

Structure (SMILES): O=C(CCl)Nc1ccc(Br)cc1 [PCM-0102992]
BSA (BSA): 0
NUDT7 (NUDT7): 0.11
OTUB2 (OTUB2 (OTUB2A)): 0.08
PCAF (PCAF): 0
viability at 48 h, 10 µM (in vitro [1]): 12.2%
viability at 48 h, 10 µM (in vitro [2]): 52.9%
viability at 48 h, 10 µM (in vitro [3]): 4.4%

Structure (SMILES): O=C(CCl)NNC(=O)CC1CCS(=O)(=O)C1 (stereo not drawn) [PCM-0102998]
BSA (BSA): 0
NUDT7 (NUDT7): 0
OTUB2 (OTUB2 (OTUB2A)): 0.69
PCAF (PCAF): 0
viability at 48 h, 10 µM (in vitro [1]): 101%
viability at 48 h, 10 µM (in vitro [2]): 100%
viability at 48 h, 10 µM (in vitro [3]): 112%

Structure (SMILES): O=C(CCl)NC(=O)NC1CCCC1 [PCM-0103001]
BSA (BSA): 0
NUDT7 (NUDT7): 0
OTUB2 (OTUB2 (OTUB2A)): 0
PCAF (PCAF): 0
viability at 48 h, 10 µM (in vitro [1]): 66.4%
viability at 48 h, 10 µM (in vitro [2]): 80.2%
viability at 48 h, 10 µM (in vitro [3]): 66.7%

Structure (SMILES): O=C(CCl)Nc1ccc(F)cc1F [PCM-0103004]
BSA (BSA): 0
NUDT7 (NUDT7): 0
OTUB2 (OTUB2 (OTUB2A)): 0.26
PCAF (PCAF): 0
viability at 48 h, 10 µM (in vitro [1]): 54.2%
viability at 48 h, 10 µM (in vitro [2]): 62.1%
viability at 48 h, 10 µM (in vitro [3]): 32%

Structure (SMILES): O=C1CN(C(=O)CCl)CCN1 [PCM-0103008]
BSA (BSA): 0
NUDT7 (NUDT7): 0
OTUB2 (OTUB2 (OTUB2A)): 0
PCAF (PCAF): 0
viability at 48 h, 10 µM (in vitro [1]): 95.3%
viability at 48 h, 10 µM (in vitro [2]): 92.8%
viability at 48 h, 10 µM (in vitro [3]): 86.5%

Structure (SMILES): CC(=O)c1cc2c(cc1NC(=O)CCl)OCO2 [PCM-0103010]
BSA (BSA): 0
NUDT7 (NUDT7): 0.14
OTUB2 (OTUB2 (OTUB2A)): 0
PCAF (PCAF): 0
viability at 48 h, 10 µM (in vitro [1]): 59.9%
viability at 48 h, 10 µM (in vitro [2]): 86%
viability at 48 h, 10 µM (in vitro [3]): 69.5%

Structure (SMILES): O=C(CCl)NCC#Cc1cccc(C(F)(F)F)c1 [PCM-0103011]
BSA (BSA): 0
NUDT7 (NUDT7): 0
OTUB2 (OTUB2 (OTUB2A)): 0.84
PCAF (PCAF): 0
viability at 48 h, 10 µM (in vitro [1]): 56.8%
viability at 48 h, 10 µM (in vitro [2]): 77.4%
viability at 48 h, 10 µM (in vitro [3]): 52.5%

Structure (SMILES): NS(=O)(=O)c1ccc(Cl)c(NC(=O)CCl)c1 [PCM-0103012]
BSA (BSA): 0
NUDT7 (NUDT7): 0
OTUB2 (OTUB2 (OTUB2A)): 0.1
PCAF (PCAF): 0
viability at 48 h, 10 µM (in vitro [1]): 54.7%
viability at 48 h, 10 µM (in vitro [2]): 67.1%
viability at 48 h, 10 µM (in vitro [3]): 11.9%

Now from value to molecule, other results behind:

BSA (BSA): 0
NUDT7 (NUDT7): 0.66
OTUB2 (OTUB2 (OTUB2A)): 0
PCAF (PCAF): 0
Structure (SMILES): CC(c1cc2ccccc2o1)N(C)C(=O)CCl (stereo not drawn) [PCM-0102971]
viability at 48 h, 10 µM (in vitro [1]): 13.3%
viability at 48 h, 10 µM (in vitro [2]): 34.1%
viability at 48 h, 10 µM (in vitro [3]): 10.1%

BSA (BSA): 0
NUDT7 (NUDT7): 0
OTUB2 (OTUB2 (OTUB2A)): 0
PCAF (PCAF): 0
Structure (SMILES): COC(=O)c1cccc(NC(=O)CCl)n1 [PCM-0102977]
viability at 48 h, 10 µM (in vitro [1]): 103%
viability at 48 h, 10 µM (in vitro [2]): 101%
viability at 48 h, 10 µM (in vitro [3]): 105%

BSA (BSA): 0.07
NUDT7 (NUDT7): 0.43
OTUB2 (OTUB2 (OTUB2A)): 0
PCAF (PCAF): 0
Structure (SMILES): CCN(C(=O)CCl)c1ccccc1C [PCM-0102980]
viability at 48 h, 10 µM (in vitro [1]): 93.4%
viability at 48 h, 10 µM (in vitro [2]): 85.7%
viability at 48 h, 10 µM (in vitro [3]): 66.1%

BSA (BSA): 0
NUDT7 (NUDT7): 0
OTUB2 (OTUB2 (OTUB2A)): 0.08
PCAF (PCAF): 0
Structure (SMILES): C=CC(=O)NCc1cc2sccc2s1 [PCM-0102986]
viability at 48 h, 10 µM (in vitro [1]): 98.7%
viability at 48 h, 10 µM (in vitro [2]): 111%
viability at 48 h, 10 µM (in vitro [3]): 78.6%

BSA (BSA): 0
NUDT7 (NUDT7): 0.3
OTUB2 (OTUB2 (OTUB2A)): 0
PCAF (PCAF): 0
Structure (SMILES): CN(Cc1nc2ccccc2s1)C(=O)CCl [PCM-0102988]
viability at 48 h, 10 µM (in vitro [1]): 9.3%
viability at 48 h, 10 µM (in vitro [2]): 42.8%
viability at 48 h, 10 µM (in vitro [3]): 2.9%

BSA (BSA): 0
NUDT7 (NUDT7): 0
OTUB2 (OTUB2 (OTUB2A)): 0
PCAF (PCAF): 0
Structure (SMILES): C=CC(=O)Nc1ccc(OC)c(F)c1 [PCM-0102995]
viability at 48 h, 10 µM (in vitro [1]): 104%
viability at 48 h, 10 µM (in vitro [2]): 106%
viability at 48 h, 10 µM (in vitro [3]): 80.5%

BSA (BSA): 0
NUDT7 (NUDT7): 0
OTUB2 (OTUB2 (OTUB2A)): 0.13
PCAF (PCAF): 0
Structure (SMILES): O=C(CCl)N1CCN(C(=O)C2COc3ccccc3O2)CC1 (stereo not drawn) [PCM-0102996]
viability at 48 h, 10 µM (in vitro [1]): 19.8%
viability at 48 h, 10 µM (in vitro [2]): 56.4%
viability at 48 h, 10 µM (in vitro [3]): 5.8%

BSA (BSA): 0
NUDT7 (NUDT7): 0
OTUB2 (OTUB2 (OTUB2A)): 0
PCAF (PCAF): 0
Structure (SMILES): C=CC(=O)N1CCN(C(=O)C2COc3ccccc3O2)CC1 (stereo not drawn) [PCM-0102999]
viability at 48 h, 10 µM (in vitro [1]): 100%
viability at 48 h, 10 µM (in vitro [2]): 112%
viability at 48 h, 10 µM (in vitro [3]): 88.3%

BSA (BSA): 0
NUDT7 (NUDT7): 0
OTUB2 (OTUB2 (OTUB2A)): 0
PCAF (PCAF): 0
Structure (SMILES): C=CC(=O)N1Cc2ccccc2CC1c1nnc(CC)o1 (stereo not drawn) [PCM-0103005]
viability at 48 h, 10 µM (in vitro [1]): 96.8%
viability at 48 h, 10 µM (in vitro [2]): 79.4%
viability at 48 h, 10 µM (in vitro [3]): 93.2%

BSA (BSA): 0.1
NUDT7 (NUDT7): 0
OTUB2 (OTUB2 (OTUB2A)): 0
PCAF (PCAF): 0
Structure (SMILES): Cc1ccccc1C(=O)NC1CCN(C(=O)CCl)CC1 [PCM-0103013]
viability at 48 h, 10 µM (in vitro [1]): 84.4%
viability at 48 h, 10 µM (in vitro [2]): 76.5%
viability at 48 h, 10 µM (in vitro [3]): 58.4%
